MIC data for 20 compounds are collected here from patent US7868135B2, “Compositions of lipopeptide antibiotic derivatives and methods of use thereof” (priority 2003, dated 2011).

Starred links: 1 amine or outer side, 2 acyl side, 3 side chain; linkers in the order of their positions; H or OH if unused. Positions of bridges follow the written chain, without caps; N, C: chain ends. Non-standard residues stand in square brackets, D forms with d. Residues, ends and D or L forms follow the SMILES beside them. ξ: configuration not given here. *: point of attachment. X35 = CC(C(N[*:1])C(=O)[*:2])N(Cc1ccc(O)cc1)Cc1ccc(O)cc1; X6 = CC(NC(=O)C12CC3CC(CC(C3)C1)C2)C(N[*:1])C(=O)[*:2]; X10 = CC(C)=CCC/C(C)=C/C(=O)NC(C)C(N[*:1])C(=O)[*:2]; X42 = CC(NC(=O)CNCc1ccccc1)C(N[*:1])C(=O)[*:2]; X22 = CC(NC(=O)[C@H](N)CO)C(N[*:1])C(=O)[*:2]; X40 = CC(NC(=O)CCN1CCNCC1)C(N[*:1])C(=O)[*:2]; X45 = CCN(CC)CCC(=O)NC(C)C(N[*:1])C(=O)[*:2]; ξAbu(βξ-NH2) = CC(N[*:3])C(N[*:1])C(=O)[*:2]; X21 = CC(=O)SCC(=O)NC(C)C(N[*:1])C(=O)[*:2]; X26 = COC(=O)CC(=O)NC(C)C(N[*:1])C(=O)[*:2]; X38 = CC(NC(=O)CCCN(C)C)C(N[*:1])C(=O)[*:2]; X23 = CC(NCc1ccc(O)cc1)C(N[*:1])C(=O)[*:2]; X20 = CC#CC(=O)NC(C)C(N[*:1])C(=O)[*:2]; X44 = CCNCC(=O)NC(C)C(N[*:1])C(=O)[*:2]; Pentadecanoyl = CCCCCCCCCCCCCCC(=O)*; ξAsp(βξ-Me) = CC(C(=O)O)C(N)C(=O)O; X27 = CCCCCCCC/C=C/CCCCCCCC(=O)*; ξAbu(3ξ-NH2) = CC(N)C(N)C(=O)O; NH(CH2)11CH3 = CCCCCCCCCCCCN*; Pip = O=C(O)[CH]1CCCCN1; ξD = NC(CC(=O)O)C(=O)O; ξPip = O=C(O)C1CCCCN1; CO = O=C([*:1])[*:2]; ξV = CC(C)C(N)C(=O)O; ξP = O=C(O)C1CCCN1

The test system of one assay is Staphylococcus aureus (MSSA). To be noted: 24 h. The method, boiled down:
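Broth microdilution MIC per NCCLS M7-A6 with doubling serial dilutions, in cation-adjusted Mueller-Hinton broth supplemented with 0.625 mM calcium.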
For the compound `CCCCCCCCCCCCCCC(=O)NC(CC(=O)O)C(=O)NC1C(=O)N2CCCCC2C(=O)NC(C(C)C(=O)O)C(=O)NC(CC(=O)O)C(=O)NCC(=O)NC(CC(=O)O)C(=O)NCC(=O)NC(C(C)NC(=O)/C=C(\C)CCC=C(C)C)C(=O)NC(C(C)C)C(=O)N2CCCC2C(=O)NC1C` (stereo not drawn) [Compound 224, C15-Amphomycin-9-Geranyl] (Pentadecanoyl-D[ξAbu(βξ-NH2)][Pip][ξAsp(βξ-Me)]DGDG[X10]VP; lactam 2-C; configuration not given here), the MIC (in general, the lowest concentration that inhibits growth of the organism) was determined as 8 µg/mL.
On the same count and under the same terms, then `CC#CC(=O)NC(C)C1NC(=O)CNC(=O)C(CC(=O)O)NC(=O)CNC(=O)C(CC(=O)O)NC(=O)C(C(C)C(=O)O)NC(=O)C2CCCCN2C(=O)C(NC(=O)C(CC(=O)O)NC(=O)CCCCCCCCCCCCCC)C(C)NC(=O)C2CCCN2C(=O)C(C(C)C)NC1=O` (stereo not drawn) [Compound 227, C15-Amphomycin-9-(2-Butynyl)] (Pentadecanoyl-D[ξAbu(βξ-NH2)][Pip][ξAsp(βξ-Me)]DGDG[X20]VP; lactam 2-C; configuration not given here), with 32 µg/mL.
Consider `CCCCCCCCCCCCCCC(=O)NC(CC(=O)O)C(=O)NC1C(=O)N2CCCCC2C(=O)NC(C(C)C(=O)O)C(=O)NC(CC(=O)O)C(=O)NCC(=O)NC(CC(=O)O)C(=O)NCC(=O)NC(C(C)NC(=O)CC(=O)OC)C(=O)NC(C(C)C)C(=O)N2CCCC2C(=O)NC1C` (stereo not drawn) [Compound 231] (Pentadecanoyl-D[ξAbu(βξ-NH2)][Pip][ξAsp(βξ-Me)]DGDG[X26]VP; lactam 2-C; configuration not given here), for which the MIC stood at 8 µg/mL.
With `CCCCCCCCCCCCCCC(=O)NC(CC(=O)O)C(=O)NC1C(=O)N2CCCCC2C(=O)NC(C(C)C(=O)O)C(=O)NC(CC(=O)O)C(=O)NCC(=O)NC(CC(=O)O)C(=O)NCC(=O)NC(C(C)NC(=O)C23CC4CC(CC(C4)C2)C3)C(=O)NC(C(C)C)C(=O)N2CCCC2C(=O)NC1C` (stereo not drawn) [Compound 232, C15-Amphomycin-9-(1-Adamantanylcarbonyl)] (Pentadecanoyl-D[ξAbu(βξ-NH2)][Pip][ξAsp(βξ-Me)]DGDG[X6]VP; lactam 2-C; configuration not given here), the minimal inhibitory concentration (MIC) amounted to 4 µg/mL.
Still for that read-out and setting: the figure for `CCCCCCCCCCCCCCC(=O)NC(CC(=O)O)C(=O)NC1C(=O)N2CCCCC2C(=O)NC(C(C)C(=O)O)C(=O)NC(CC(=O)O)C(=O)NCC(=O)NC(CC(=O)O)C(=O)NCC(=O)NC(C(C)NC(=O)CSC(C)=O)C(=O)NC(C(C)C)C(=O)N2CCCC2C(=O)NC1C` (stereo not drawn) [Compound 235, C15-Amphomycin-9-(S-Acetylthioglycolyl)] (Pentadecanoyl-D[ξAbu(βξ-NH2)][Pip][ξAsp(βξ-Me)]DGDG[X21]VP; lactam 2-C; configuration not given here) is 2 µg/mL; for `CCCCCCCC/C=C/CCCCCCCC(=O)NC(C)C1NC(=O)CNC(=O)C(CC(=O)O)NC(=O)CNC(=O)C(CC(=O)O)NC(=O)C(C(C)C(=O)O)NC(=O)C2CCCCN2C(=O)C(NC(=O)C(CC(=O)O)NC(=O)CCCCCCCCCCCCCC)C(C)NC(=O)C2CCCN2C(=O)C(C(C)C)NC1=O` (stereo not drawn) [Compound 238, C15-Amphomycin-9-Oleate] (Pentadecanoyl-D[ξAbu(βξ-NH2)][Pip][ξAsp(βξ-Me)]DGDG[ξAbu(βξ-NH2)](X27)VP; lactam 2-C; configuration not given here) it is 1 to 2 µg/mL.
Still for that read-out and setting: the figure for `CCCCCCCCCCCCCCC(=O)NC(CC(=O)O)C(=O)NC1C(=O)N2CCCCC2C(=O)NC(C(C)C(=O)O)C(=O)NC(CC(=O)O)C(=O)NCC(=O)NC(CC(=O)O)C(=O)NCC(=O)NC(C(C)NC(=O)CCN2CCNCC2)C(=O)NC(C(C)C)C(=O)N2CCCC2C(=O)NC1C` (stereo not drawn) [Compound 241] (Pentadecanoyl-D[ξAbu(βξ-NH2)][Pip][ξAsp(βξ-Me)]DGDG[X40]VP; lactam 2-C; configuration not given here) is 1 to 2 µg/mL; for `CCCCCCCCCCCCCCC(=O)NC(CC(=O)O)C(=O)NC1C(=O)N2CCCCC2C(=O)NC(C(C)C(=O)O)C(=O)NC(CC(=O)O)C(=O)NCC(=O)NC(CC(=O)O)C(=O)NCC(=O)NC(C(C)NC(=O)CCCN(C)C)C(=O)NC(C(C)C)C(=O)N2CCCC2C(=O)NC1C` (stereo not drawn) [Compound 242, C15-Amphomycin-9-(N,N′-Dimethyl-GABA)] (Pentadecanoyl-D[ξAbu(βξ-NH2)][Pip][ξAsp(βξ-Me)]DGDG[X38]VP; lactam 2-C; configuration not given here) it is 1 to 2 µg/mL; for `CCCCCCCCCCCCCCC(=O)NC(CC(=O)O)C(=O)NC1C(=O)N2CCCCC2C(=O)NC(C(C)C(=O)O)C(=O)NC(CC(=O)O)C(=O)NCC(=O)NC(CC(=O)O)C(=O)NCC(=O)NC(C(C)NC(=O)CNCC)C(=O)NC(C(C)C)C(=O)N2CCCC2C(=O)NC1C` (stereo not drawn) [Compound 243, C15-Amphomycin-9-(N-Ethyl-Gly)] (Pentadecanoyl-D[ξAbu(βξ-NH2)][Pip][ξAsp(βξ-Me)]DGDG[X44]VP; lactam 2-C; configuration not given here) it is 0.5 to 1 µg/mL.
For the compound `CCCCCCCCCCCCCCC(=O)NC(CC(=O)O)C(=O)NC1C(=O)N2CCCCC2C(=O)NC(C(C)C(=O)O)C(=O)NC(CC(=O)O)C(=O)NCC(=O)NC(CC(=O)O)C(=O)NCC(=O)NC(C(C)NC(=O)CNCc2ccccc2)C(=O)NC(C(C)C)C(=O)N2CCCC2C(=O)NC1C` (stereo not drawn) [Compound 245, C15-Amphomycin-9-(N-Benzyl-Gly)] (Pentadecanoyl-D[ξAbu(βξ-NH2)][Pip][ξAsp(βξ-Me)]DGDG[X42]VP; lactam 2-C; configuration not given here), the MIC was found to be 1 µg/mL.
Same read-out and setting: the figure for `CCCCCCCCCCCCCCC(=O)NC(CC(=O)O)C(=O)NC1C(=O)N2CCCCC2C(=O)NC(C(C)C(=O)O)C(=O)NC(CC(=O)O)C(=O)NCC(=O)NC(CC(=O)O)C(=O)NCC(=O)NC(C(C)NC(=O)CCN(CC)CC)C(=O)NC(C(C)C)C(=O)N2CCCC2C(=O)NC1C` (stereo not drawn) [Compound 246, C15-Amphomycin-9-(N,N-Diethyl-β-Ala)] (Pentadecanoyl-D[ξAbu(βξ-NH2)][Pip][ξAsp(βξ-Me)]DGDG[X45]VP; lactam 2-C; configuration not given here) is 2 µg/mL; for `CCCCCCCCCCCCCCCCNC(=O)NC(CC(=O)O)C(=O)NC1C(=O)N2CCCCC2C(=O)NC(C(C)C(=O)O)C(=O)NC(CC(=O)O)C(=O)NCC(=O)NC(CC(=O)O)C(=O)NCC(=O)NC(C(C)N)C(=O)NC(C(C)C)C(=O)N2CCCC2C(=O)NC1C` (centres unmarked) [Compound 249, CH3—(CH2)15—NH—C(═O)-Amphomycin] it is 2 to 4 µg/mL; for `CCCCCCCCNC(=O)NC(CC(=O)O)C(=O)NC1C(=O)N2CCCCC2C(=O)NC(C(C)C(=O)O)C(=O)NC(CC(=O)O)C(=O)NCC(=O)NC(CC(=O)O)C(=O)NCC(=O)NC(C(C)N)C(=O)NC(C(C)C)C(=O)N2CCCC2C(=O)NC1C` (centres unmarked) [Compound 252, CH3—(CH2)7—NH—C(═O)-Amphomycin] it is 32 µg/mL.
On the same count and under the same terms, then `CCCCCCCCCCCCNC(=O)NCC(=O)NC(CC(=O)O)C(=O)NC1C(=O)N2CCCCC2C(=O)NC(C(C)C(=O)O)C(=O)NC(CC(=O)O)C(=O)NCC(=O)NC(CC(=O)O)C(=O)NCC(=O)NC(C(C)N)C(=O)NC(C(C)C)C(=O)N2CCCC2C(=O)NC1C` (stereo not drawn) [Compound 254, CH3—(CH2)11—NH—C(═O)-Gly-Amphomycin] ({NH(CH2)11CH3-CO}-GD[ξAbu(βξ-NH2)][Pip][ξAsp(βξ-Me)]DGDG[ξAbu(3ξ-NH2)]VP; lactam 3-C; configuration not given here), with 2 to 4 µg/mL; and `CCCCCCCCCCCCCCC(=O)NC(CC(=O)O)C(=O)NC1C(=O)N2CCCCC2C(=O)NC(C(C)C(=O)O)C(=O)NC(CC(=O)O)C(=O)NCC(=O)NC(CC(=O)O)C(=O)NCC(=O)NC(C(C)NC(=O)[C@H](N)CO)C(=O)NC(C(C)C)C(=O)N2CCCC2C(=O)NC1C` (stereo partly drawn) [Compound 262, C15-Amphomycin-(D-Ser)] (Pentadecanoyl-[ξD][ξAbu(βξ-NH2)][ξPip][ξAsp(βξ-Me)][ξD]G[ξD]G[X22][ξV][ξP]; lactam 2-C), with 4 µg/mL; and `CCCCCCCCCCCCCCC(=O)NC(CC(=O)O)C(=O)NC1C(=O)N2CCCCC2C(=O)NC(C(C)C(=O)O)C(=O)NC(CC(=O)O)C(=O)NCC(=O)NC(CC(=O)O)C(=O)NCC(=O)NC(C(C)NC(=O)[C@H](N)Cc2ccc(O)cc2)C(=O)NC(C(C)C)C(=O)N2CCCC2C(=O)NC1C` (stereo partly drawn) [Compound 263, C15-Amphomycin-(D-Tyr)], with 32 µg/mL.
Regarding `CCCCCCCCCCCCCCC(=O)NC(CC(=O)O)C(=O)NC1C(=O)N2CCCCC2C(=O)NC(C(C)C(=O)O)C(=O)NC(CC(=O)O)C(=O)NCC(=O)NC(CC(=O)O)C(=O)NCC(=O)NC(C(C)NC(=O)[C@H](N)Cc2c[nH]c3ccccc23)C(=O)NC(C(C)C)C(=O)N2CCCC2C(=O)NC1C` (stereo partly drawn) [Compound 264, C15-Amphomycin-(D-Trp)], the MIC was found to be 8 µg/mL.
Still for that read-out and setting: the figure for `CCCCCCCCCCCCCCC(=O)NC(CC(=O)O)C(=O)NC1C(=O)N2CCCCC2C(=O)NC(C(C)C(=O)O)C(=O)NC(CC(=O)O)C(=O)NCC(=O)NC(CC(=O)O)C(=O)NCC(=O)NC(C(C)NCc2ccc(O)cc2)C(=O)NC(C(C)C)C(=O)N2CCCC2C(=O)NC1C` (stereo not drawn) [Compound 266, C15-Amphomycin-9-(4-Hydroxybenzyl)] (Pentadecanoyl-D[ξAbu(βξ-NH2)][Pip][ξAsp(βξ-Me)]DGDG[X23]VP; lactam 2-C; configuration not given here) is 8 to 16 µg/mL; for `CCCCCCCCCCCCCCC(=O)NC(CC(=O)O)C(=O)NC1C(=O)N2CCCCC2C(=O)NC(C(C)C(=O)O)C(=O)NC(CC(=O)O)C(=O)NCC(=O)NC(CC(=O)O)C(=O)NCC(=O)NC(C(C)N(Cc2ccc(O)cc2)Cc2ccc(O)cc2)C(=O)NC(C(C)C)C(=O)N2CCCC2C(=O)NC1C` (stereo not drawn) [Compound 267, C15-Amphomycin-9-N,N-di-(p-Hydroxybenzyl)] (Pentadecanoyl-D[ξAbu(βξ-NH2)][Pip][ξAsp(βξ-Me)]DGDG[X35]VP; lactam 2-C; configuration not given here) it is 8 µg/mL.

Staying with this assay, now noted: S. aureus (MSSA), CAMHB supplemented with 0.625 mM calcium, 24 hours at about 37° C.; a range = compound tested multiple times.
In the case of `CCCCCCCCCCCCCCC(=O)NC(CC(=O)O)C(=O)NC1C(=O)N2CCCCC2C(=O)NC(C(C)C(=O)O)C(=O)NC(CC(=O)O)C(=O)NCC(=O)NC(CC(=O)O)C(=O)NCC(=O)NC(C(C)NC(=O)CCCCC(C)=O)C(=O)NC(C(C)C)C(=O)N2CCCC2C(=O)NC1C` (centres unmarked) [Compound 237, C15-Amphomycin-9-(6-Oxoheptanoyl)], the MIC was determined as 16 µg/mL.
